Structures can show the parent of a compound that is named as a salt.
What follows are compounds tested against T1, human HSL (Homo sapiens, UniProt Q05469) (assay: Human Hormone-Sensitive Lipase (HSL) enzyme inhibition assay (colorimetric, DMPT substrate)). Settings: read-out: HSL hum IC50.
T1 construct: generate a full length human HSL ORF with a 3′-His6 tag; His6 (C); made in house; host or cells: High 5 insect cells (baculovirus, pFast-BAC)
T1 sequence (Q05469 1-1076): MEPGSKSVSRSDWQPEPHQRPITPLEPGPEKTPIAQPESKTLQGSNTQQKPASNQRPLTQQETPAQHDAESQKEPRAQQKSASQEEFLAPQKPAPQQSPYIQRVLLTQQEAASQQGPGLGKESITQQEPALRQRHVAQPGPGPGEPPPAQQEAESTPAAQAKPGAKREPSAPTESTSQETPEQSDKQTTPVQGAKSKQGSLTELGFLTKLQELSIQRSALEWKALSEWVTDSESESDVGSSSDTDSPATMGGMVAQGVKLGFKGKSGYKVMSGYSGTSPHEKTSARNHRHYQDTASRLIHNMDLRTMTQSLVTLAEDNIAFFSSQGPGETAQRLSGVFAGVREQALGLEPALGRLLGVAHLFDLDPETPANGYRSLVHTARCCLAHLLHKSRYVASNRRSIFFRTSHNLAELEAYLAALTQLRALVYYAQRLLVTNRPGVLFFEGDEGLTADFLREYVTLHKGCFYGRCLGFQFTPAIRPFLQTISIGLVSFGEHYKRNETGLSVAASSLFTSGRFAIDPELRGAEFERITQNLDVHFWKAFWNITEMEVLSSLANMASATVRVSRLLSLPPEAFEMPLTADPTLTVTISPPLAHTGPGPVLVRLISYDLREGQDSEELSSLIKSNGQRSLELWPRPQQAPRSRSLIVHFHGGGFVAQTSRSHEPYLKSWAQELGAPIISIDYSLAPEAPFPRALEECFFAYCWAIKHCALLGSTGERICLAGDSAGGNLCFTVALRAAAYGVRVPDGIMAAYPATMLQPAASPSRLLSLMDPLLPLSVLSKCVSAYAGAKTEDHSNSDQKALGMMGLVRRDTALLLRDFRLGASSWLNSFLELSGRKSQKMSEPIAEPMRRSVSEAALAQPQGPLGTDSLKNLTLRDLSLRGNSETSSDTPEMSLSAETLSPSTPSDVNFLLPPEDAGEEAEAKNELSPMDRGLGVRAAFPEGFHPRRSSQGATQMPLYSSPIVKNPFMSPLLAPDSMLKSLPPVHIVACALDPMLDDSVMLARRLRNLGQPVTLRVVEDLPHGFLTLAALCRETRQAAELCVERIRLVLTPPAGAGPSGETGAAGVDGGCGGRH
Type: biochemical
How it was run: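 Full-length human HSL carrying a C-terminal His6 tag was expressed in High 5 insect cells via baculovirus and purified on Ni-NTA. Compounds from 3-fold DMSO series were mixed with 1.5 mM DMPT substrate suspension in 100 mM MOPS pH 7.2 with 0.2 mg/ml fatty acid-free BSA, then enzyme (15 ug/ml) was added for 20 minutes at 37 °C. Released thiol was detected with DTNB plus SDS/Triton X-100 (15 minutes, room temperature) at 405 nm.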

| IC50 [nM] | Structure (SMILES) |
| --- | --- |
| 90 | CCc1ccc(NC(=O)C2(N)CCN(S(=O)(=O)c3ccccc3)CC2)cc1 [Example 133, 4-Amino-1-benzenesulfonyl-piperidine-4-carboxylic acid (4-ethyl-phenyl)-amide] |
| 230 | CC(C)c1ccc(NC(=O)C2(N)CCN(S(=O)(=O)c3ccc(C(C)C)cc3)CC2)cc1 [Example 83, 4-Amino-1-(4-isopropyl-benzenesulfonyl)-piperidine-4-carboxylic acid (4-isopropyl-phenyl)-amide; hydrochloride] |
| 860 | CCc1cccc(NC(=O)C2(N)CCN(S(=O)(=O)c3ccccc3Cl)CC2)c1 [Example 92, 4-Amino-1-(2-chloro-benzenesulfonyl)-piperidine-4-carboxylic acid (3-ethyl-phenyl)-amide] |
| 190 | NC1(C(=O)Nc2ccc(Cl)cc2)CCN(S(=O)(=O)c2ccccc2Cl)CC1 [Example 95, 4-Amino-1-(2-chloro-benzenesulfonyl)-piperidine-4-carboxylic acid (4-chloro-phenyl)-amide] |
| 90 | CCCCc1ccc(S(=O)(=O)N2CCC(N)(C(=O)Nc3ccc(CC)cc3)CC2)cc1 [Example 141, 4-Amino-1-(4-butyl-benzenesulfonyl)-piperidine-4-carboxylic acid (4-ethyl-phenyl)-amide] |
| 500 | CC(C)c1ccc(NC(=O)C2(N)CCN(S(=O)(=O)c3ccc(C(F)(F)F)cc3Cl)CC2)cc1 [Example 131, 4-Amino-1-(2-chloro-4-trifluoromethyl-benzenesulfonyl)-piperidine-4-carboxylic acid (4-isopropyl-phenyl)-amide] |
| 110 | CCc1ccc(NC(=O)C2(N)CCN(Cc3ccccc3Cl)CC2)cc1 [Example 154, 4-Amino-1-(2-chloro-benzyl)-piperidine-4-carboxylic acid (4-ethyl-phenyl)-amide] |
| 60 | CC(C)(C)c1ccc(NC(=O)C2(O)CCN(S(=O)(=O)c3ccccc3Cl)CC2)cc1 [Example 17, 1-(2-Chloro-benzenesulfonyl)-4-hydroxy-piperidine-4-carboxylic acid (4-tert-butyl-phenyl)-amide] |
| 80 | CC(C)c1ccc(NC(=O)C2(N)CCN(Cc3ccccc3Cl)CC2)cc1 [Example 110, 4-Amino-1-(2-chloro-benzyl)-piperidine-4-carboxylic acid (4-isopropyl-phenyl)-amide; hydrochloride] |

More lines, now with the values behind:

| Structure (SMILES) | IC50 [nM] |
| --- | --- |
| CC(C)(C)c1ccc(NC(=O)C2(N)CCN(C(=O)Nc3ccc(OC(F)(F)F)cc3)CC2)cc1 [Example 86, 4-Amino-piperidine-1,4-dicarboxylic acid 4-[(4-tert-butyl-phenyl)-amide]1-[(4-trifluoromethoxy-phenyl)-amide]; hydrochloride] | 140 |
| COc1ccc(S(=O)(=O)N2CCC(O)(C(=O)Nc3ccc(C(C)(C)C)cc3)CC2)cc1 [Example 19, 4-Hydroxy-1-(4-methoxy-benzenesulfonyl)-piperidine-4-carboxylic acid (4-tert-butyl-phenyl)-amide] | 170 |
| CC(C)c1ccc(NC(=O)C2(N)CCN(Cc3ccccc3OC(F)(F)F)CC2)cc1 [Example 113, 4-Amino-1-(2-trifluoromethoxy-benzyl)-piperidine-4-carboxylic acid (4-isopropyl-phenyl)-amide; hydrochloride] | 80 |
| CC(C)CS(=O)(=O)N1CCC(N)(C(=O)Nc2ccc(C(C)C)cc2)CC1 [Example 120, 4-Amino-1-(2-methyl-propane-1-sulfonyl)-piperidine-4-carboxylic acid (4-isopropyl-phenyl)-amide; hydrochloride] | 230 |
| CC(C)c1ccc(NC(=O)C2(N)CCN(C(=O)c3ccc(C(F)(F)F)nc3)CC2)cc1 [Example 130, 4-Amino-1-(6-trifluoromethyl-pyridine-3-carbonyl)-piperidine-4-carboxylic acid (4-isopropyl-phenyl)-amide] | 520 |
| CC(C)CS(=O)(=O)N1CCC(O)(C(=O)Nc2ccc(OC(F)(F)F)cc2)CC1 [Example 54, 4-Hydroxy-1-(2-methyl-propane-1-sulfonyl)-piperidine-4-carboxylic acid (4-trifluoromethoxy-phenyl)-amide] | 660 |
| CC(C)(C)c1ccc(NC(=O)C2(O)CCN(Cc3ccccc3)CC2)cc1 [Example 3, 1-Benzyl-4-hydroxy-piperidine-4-carboxylic acid (4-tert-butyl-phenyl)-amide] | 390 |
| CCc1ccc(NC(=O)C2(N)CCN(Cc3ccccc3F)CC2)cc1 [Example 153, 4-Amino-1-(2-fluoro-benzyl)-piperidine-4-carboxylic acid (4-ethyl-phenyl)-amide] | 170 |
| Cc1ccc(S(=O)(=O)N2CCC(O)(C(=O)Nc3ccc(OC(F)(F)F)cc3)CC2)cc1 [Example 60, 4-Hydroxy-1-(toluene-4-sulfonyl)-piperidine-4-carboxylic acid (4-trifluoromethoxy-phenyl)-amide] | 220 |
| CC(C)c1ccc(NC(=O)C2(N)CCN(C(=O)c3ccccc3OC(F)(F)F)CC2)cc1 [Example 123, 4-Amino-1-(2-trifluoromethoxy-benzoyl)-piperidine-4-carboxylic acid (4-isopropyl-phenyl)-amide] | 200 |
| Cc1ccc(S(=O)(=O)N2CCC(O)(C(=O)Nc3ccc(C(C)(C)C)cc3)CC2)cc1 [Example 16, 4-Hydroxy-1-(toluene-4-sulfonyl)-piperidine-4-carboxylic acid (4-tert-butyl-phenyl)-amide] | 200 |
| CC(C)c1ccc(NC(=O)C2(N)CCN(C(=O)OCc3ccccc3)CC2)cc1 [Example 82, 4-Amino-4-(4-isopropyl-phenylcarbamoyl)-piperidine-1-carboxylic acid benzyl ester; hydrochloride] | 320 |
| CCCCS(=O)(=O)N1CCC(N)(C(=O)Nc2ccc(CC)cc2)CC1 [Example 143, 4-Amino-1-(butane-1-sulfonyl)-piperidine-4-carboxylic acid (4-ethyl-phenyl)-amide] | 530 |
| CC(C)c1ccc(NC(=O)C2(N)CCN(Cc3cccc(F)c3)CC2)cc1 [Example 111, 4-Amino-1-(3-fluoro-benzyl)-piperidine-4-carboxylic acid (4-isopropyl-phenyl)-amide; hydrochloride] | 240 |
| CC(C)(C)c1ccc(NC(=O)C2(O)CCN(Cc3ccccc3OC(F)(F)F)CC2)cc1 [Example 48, 4-Hydroxy-1-(2-trifluoromethoxy-benzyl)-piperidine-4-carboxylic acid (4-tert-butyl-phenyl)-amide] | 110 |
| CC(C)c1ccc(NC(=O)C2(O)CCN(Cc3ccc(F)cc3)CC2)cc1 [Example 2, 1-(4-Fluoro-benzyl)-4-hydroxy-piperidine-4-carboxylic acid (4-isopropyl-phenyl)-amide] | 270 |
| CC(C)CCC(=O)N1CCC(N)(C(=O)Nc2ccc(C(C)C)cc2)CC1 [Example 129, 4-Amino-1-(4-methyl-pentanoyl)-piperidine-4-carboxylic acid (4-isopropyl-phenyl)-amide] | 480 |
| Cc1ccc(S(=O)(=O)N2CCC(O)(C(=O)Nc3ccc(OC(C)C)cc3)CC2)cc1 [Example 12, 4-Hydroxy-1-(toluene-4-sulfonyl)-piperidine-4-carboxylic acid (4-isopropoxy-phenyl)-amide] | 860 |
| CC(C)c1ccc(NC(=O)C2(N)CCN(C(=O)Nc3ccc(F)cc3)CC2)cc1 [Example 106, 4-Amino-piperidine-1,4-dicarboxylic acid 1-[(4-fluoro-phenyl)-amide]-4-[(4-isopropyl-phenyl)-amide]; hydrochloride] | 210 |
| O=C(Nc1ccc(OC(F)(F)F)cc1)C1(O)CCN(S(=O)(=O)CCC(F)(F)F)CC1 [Example 62, 4-Hydroxy-1-(3,3,3-trifluoro-propane-1-sulfonyl)-piperidine-4-carboxylic acid (4-trifluoromethoxy-phenyl)-amide] | 870 |
| CC(C)c1ccc(NC(=O)C2(O)CCN(Cc3ccccc3)CC2)cc1 [Example 1, 1-Benzyl-4-hydroxy-piperidine-4-carboxylic acid (4-isopropyl-phenyl)-amide] | 460 |
